Tests used:
Shigella flexneri 11836 = experiment: oral ED50, systemic infection in mice; type: in vivo, Shigella flexneri; female MF 2 mice; settings: p.o., 2 doses
[1] = tested on: Staphylococcus aureus 10B; experiment: oral ED50, systemic infection in mice; settings: in Mus musculus, read-out: oral ED50
Description: (§4) *single dose of antibiotic administered immediately after infection

S. aureus 2999 i^+ p^+ = experiment: oral ED50, systemic infection in mice; settings: Staphylococcus aureus, in Mus musculus, read-out: oral ED50
Description: as §4

[2] = tested on: S. aureus 102 (methicillin res.); experiment: oral ED50, systemic infection in mice; settings: Staphylococcus aureus, in Mus musculus, read-out: oral ED50
Description: as §4

[3] = tested on: Streptococcus pyogenes 38; experiment: oral ED50, systemic infection in mice; settings: Streptococcus pyogenes, 38, in Mus musculus, 3 h, read-out: oral ED50
S. pyogenes Aronson = experiment: oral ED50, systemic infection in mice; settings: Streptococcus pyogenes, in Mus musculus, read-out: oral ED50
[4] = tested on: Diplococcus pneumoniae 111/84; experiment: oral ED50, systemic infection in mice; settings: Streptococcus pneumoniae, 111/84, in Mus musculus, read-out: oral ED50
Escherichia coli 205 = experiment: oral ED50, systemic infection in mice; settings: Escherichia coli, 205, in Mus musculus, read-out: oral ED50
E. coli 205 R^+TEM = experiment: oral ED50, systemic infection in mice; settings: Escherichia coli, in Mus musculus, read-out: oral ED50
Description: (§5) **two doses; the first administered immediately after infection, the

E. coli 2018 = experiment: oral ED50, systemic infection in mice; settings: Escherichia coli, 2018, in Mus musculus, read-out: oral ED50
Description: as §5

E. coli 2018 R^+TEM = experiment: oral ED50, systemic infection in mice; settings: Escherichia coli, in Mus musculus, read-out: oral ED50
Description: as §5

E. coli 2 = experiment: oral ED50, systemic infection in mice; settings: Escherichia coli, 2, in Mus musculus, read-out: oral ED50
Description: as §5

E. coli 5 = experiment: oral ED50, systemic infection in mice; settings: Escherichia coli, 5, in Mus musculus, read-out: oral ED50
Description: as §5

E. coli 9 = experiment: oral ED50, systemic infection in mice; settings: Escherichia coli, 9, in Mus musculus, read-out: oral ED50
Description: as §5

E. coli 16 = experiment: oral ED50, systemic infection in mice; settings: Escherichia coli, 16, in Mus musculus, read-out: oral ED50
Description: as §5

E. coli 9-25.1. = experiment: oral ED50, systemic infection in mice; settings: Escherichia coli, 925.1., in Mus musculus, read-out: oral ED50
Description: as §5

E. coli 1239/19 = experiment: oral ED50, systemic infection in mice; settings: Escherichia coli, 1239/19, in Mus musculus, read-out: oral ED50
Description: as §5

[5] = tested on: Salmonella typhimurium 273; experiment: oral ED50, systemic infection in mice; settings: Salmonella enterica, in Mus musculus, read-out: oral ED50
Description: as §5

S. typhimurium 277 = experiment: oral ED50, systemic infection in mice; settings: Salmonella enterica, in Mus musculus, read-out: oral ED50
[6] = tested on: Klebsiella pneumoniae 327; experiment: oral ED50, systemic infection in mice; settings: Klebsiella pneumoniae, 327, in Mus musculus, read-out: oral ED50
K. pneumoniae 329 = experiment: oral ED50, systemic infection in mice; settings: Klebsiella pneumoniae, 329, in Mus musculus, read-out: oral ED50
[7] = tested on: Enterobacter cloacae P 99; experiment: oral ED50, systemic infection in mice; settings: P99, in Mus musculus, read-out: oral ED50
proteus morganii 2359 = experiment: oral ED50, systemic infection in mice; settings: Morganella morganii, 2359, in Mus musculus, read-out: oral ED50
P. vulgaris 1076 = experiment: oral ED50, systemic infection in mice; settings: Proteus vulgaris, 1076, in Mus musculus, read-out: oral ED50
P. rettgeri 856 = experiment: oral ED50, systemic infection in mice; settings: Providencia rettgeri, 856, in Mus musculus, read-out: oral ED50
P. mirabilis 774 = experiment: oral ED50, systemic infection in mice; settings: Proteus mirabilis, 774, in Mus musculus, read-out: oral ED50
Serratia marcescens 344 = experiment: oral ED50, systemic infection in mice; settings: Serratia marcescens, 344, in Mus musculus, read-out: oral ED50
Pasteurella multocid 341 = experiment: oral ED50, systemic infection in mice; settings: Pasteurella, 341, in Mus musculus, read-out: oral ED50
[8] = tested on: Pseudomonas aeruginosa 799; experiment: oral ED50, systemic infection in mice; settings: Pseudomonas aeruginosa, 799, in Mus musculus, read-out: oral ED50
in vivo = settings: mouse, in vivo
Description: (§1) ^a calcultated according to Miller-Tainter ± standard error (Proc.
(§2) ^b calculated according to the Probit-method with 95% confidence
(§3) limits (Goulden A., Methods of Statistical Analysis, J. Wiley and Sons, […]

mice = experiment: in vivo; settings: mice; in words, compared with II and IV
Description: as §1, §2, §3

bactericidal activity = settings: in words, compared with cephradin (III) and cephalexin (IV)
solubility in urin = type: physicochemical; settings: in words, compared with compound II
[9] = tested on: systemic infections due to various bacterial strains; settings: female MF 2 mice; in words, compared with II, III, IV

Row | SMILES | ED50 (Shigella flexneri 11836) | ED50 [1] | ED50 (S. aureus 2999 i^+ p^+) | ED50 [2] | ED50 [3] | ED50 (S. pyogenes Aronson) | ED50 [4] | ED50 (Escherichia coli 205) | ED50 (E. coli 205 R^+TEM) | ED50 (E. coli 2018) | ED50 (E. coli 2018 R^+TEM) | ED50 (E. coli 2) | ED50 (E. coli 5) | ED50 (E. coli 9) | ED50 (E. coli 16) | ED50 (E. coli 9-25.1.) | ED50 (E. coli 1239/19) | ED50 [5] | ED50 (S. typhimurium 277) | ED50 [6] | further results
1 | CC1=C(C(=O)O)N2C(=O)[C@@H](NC(=O)[C@H](N)c3ccccc3)[C@H]2SC1 [cephalexin] | 7 mg/kg | 6.6 mg/kg | 85 mg/kg | 120 mg/kg | 6 mg/kg | 6.3 mg/kg | 30 mg/kg | 40 mg/kg | 40 mg/kg | 13 mg/kg | 25 mg/kg | > 1000 mg/kg | 28 mg/kg | 90 mg/kg | > 300 mg/kg | > 300 mg/kg | 20 mg/kg | 140 mg/kg | 100 mg/kg | 105 mg/kg | ED50 (K. pneumoniae 329): 47 mg/kg; ED50 [7]: > 300 mg/kg; ED50 (proteus morganii 2359): > 1000 mg/kg; ED50 (P. vulgaris 1076): 45 mg/kg; ED50 (P. rettgeri 856): 15 to 30 mg/kg; ED50 (P. mirabilis 774): 80 mg/kg; ED50 (Serratia marcescens 344): > 300 mg/kg; ED50 (Pasteurella multocid 341): 66 mg/kg; ED50 [8]: > 1000 mg/kg
2 | CC1=C(C(=O)O)N2C(=O)[C@@H](NC(=O)[C@H](N)C3=CCC=CC3)[C@H]2SC1 [cephradine] | 11 mg/kg | 6 mg/kg | 32 mg/kg | 76 mg/kg | 8 mg/kg | 5.5 mg/kg | 40 mg/kg | 52 mg/kg | 16 mg/kg | 13 mg/kg | 38 mg/kg | > 300 mg/kg | > 30 mg/kg | ≥ 300 mg/kg | > 300 mg/kg | > 300 mg/kg | ~25 mg/kg | 80 mg/kg | 110 mg/kg | 250 mg/kg | ED50 (K. pneumoniae 329): 120 mg/kg; ED50 [7]: > 1000 mg/kg; ED50 (proteus morganii 2359): > 1000 mg/kg; ED50 (P. vulgaris 1076): 80 mg/kg; ED50 (P. rettgeri 856): ≥ 30 mg/kg; ED50 (P. mirabilis 774): ~50 mg/kg; ED50 (Serratia marcescens 344): > 1000 mg/kg; ED50 (Pasteurella multocid 341): 110 mg/kg; ED50 [8]: > 300 mg/kg
3 | COC1=C(C(=O)O)N2C(=O)[C@@H](NC(=O)[C@H](N)c3ccccc3)[C@H]2SC1 [compound II] | 20 mg/kg | 6 mg/kg | 210 mg/kg | 100 mg/kg | 7.5 mg/kg | 2.5 mg/kg | 16 mg/kg | 22 mg/kg | 48 mg/kg | 15 mg/kg | 38 mg/kg | > 1000 mg/kg | 13 mg/kg | 210 mg/kg | > 300 mg/kg | > 300 mg/kg | 12 mg/kg | 60 mg/kg | 65 mg/kg | 75 mg/kg | LD50 (in vivo; ip): 3800 ± 290 mg/kg; LD50 (in vivo; po): > 6000 mg/kg; ED50 (K. pneumoniae 329): 35 mg/kg; ED50 [7]: > 300 mg/kg; ED50 (proteus morganii 2359): > 300 mg/kg; ED50 (P. vulgaris 1076): 25 mg/kg; ED50 (P. rettgeri 856): 14 mg/kg; ED50 (P. mirabilis 774): 54 mg/kg; ED50 (Serratia marcescens 344): > 1000 mg/kg; ED50 (Pasteurella multocid 341): ~20 mg/kg; ED50 [8]: > 300 mg/kg
4 | COC1=C(C(=O)O)N2C(=O)[C@@H](NC(=O)[C@H](N)C3=CCC=CC3)[C@H]2SC1 [compound I] | 25 mg/kg | 3.3 mg/kg | 25 mg/kg | 17.5 mg/kg | 1 mg/kg | 1 mg/kg | 8.5 mg/kg | 9.5 mg/kg | 7.3 mg/kg | 3 mg/kg | 14 mg/kg | ~140 mg/kg | 7.8 mg/kg | ~30 mg/kg | > 300 mg/kg | ≥ 300 mg/kg | 4 mg/kg | 30 mg/kg | 30 mg/kg | 40 mg/kg | LD50 (in vivo; ip): 7090 mg/kg; LD50 (in vivo; po): > 6000 mg/kg; acute toxicity (mice): more favourable as the acute toxicity of compounds II and IV; bactericidal activity (bactericidal activity): surprisingly stronger bactericidal activity as compared to cephradin (III) and cephalexin (IV); solubility in urin (solubility in urin): higher as compared to compound II; chemotherapeutic activity [9]: surprisingly stronger chemotherapeutic activity; ED50 (K. pneumoniae 329): 17 mg/kg; ED50 [7]: > 300 mg/kg; ED50 (proteus morganii 2359): > 300 mg/kg; ED50 (P. vulgaris 1076): 20 mg/kg; ED50 (P. rettgeri 856): 6.8 mg/kg; ED50 (P. mirabilis 774): 16 mg/kg; ED50 (Serratia marcescens 344): > 300 mg/kg; ED50 (Pasteurella multocid 341): 17 mg/kg; ED50 [8]: > 300 mg/kg

From US4073902A, “O-Substituted 7β-amino-3-cephem-3-ol-4-carboxylic acid compounds” (priority 1972, dated 1978)
